From patent publication US11040056B2, “Benzimidazoles that enhance the activity of oligonucleotides” (The University of North Carolina at Chapel Hill, priority 2018, dated 2021)
d = 2'-deoxy (DNA); m = 2'-O-methyl

Key:
HeLaLuc705 cells = assay: SSO-mediated luciferase induction assay; format: cell-based; settings: for EC50: luciferase induction by SSO623
Experimental: FIG. 1B-1E. Effects with SSOs. FIG. 1B Structure of UNC2383. […] The cells were then rinsed and incubation continued for an additional 4 h in DMEM+10% FBS. Cells were rinsed twice in PBS and luciferase activity (RLU) and cell protein determined. The larger round symbol indicates the MM oligonucleotide. Means+/−SE. N=3. […] The cells were further incubated and then luciferase and protein determined. The total time of incubation in each case was 6 h. […] Means+/−SE. N=3.
(§1) FIG. 3. Effect and Cytotoxicity of Analogs. The effect of selected UNC2383 analogs on luciferase induction by SSO623 was measured as described in Methods and in the legend of FIG. 1B-1E. Cytotoxicity was measured using the Alamar Blue method as in FIG. 1E. MM10 is the effect of 10 uM compound in the presence of a mismatched oligonucleotide. Means and SE. N=3.
HeLaLuc705 cells are stably transfected with a firefly luciferase reporter whose coding sequence is interrupted by an abnormal intron. […] NIH-3T3-MDR cells are stably transfected with a human MDR1 cDNA coding for the P-glycoprotein (Pgp). We have described the maintenance and use of these cell lines elsewhere. (18, 20)
(§2) SSO-mediated luciferase induction assays were conducted as previously described. (18) In short, HeLaLuc705 cells in 24 well culture plates were preincubated with SSO623 followed by brief treatment with the small molecule; at intervals thereafter, luciferase activity and protein content were determined. […] (30)

[1] = tested on: CFTR channel activity in human bronchial epithelial cells (HBEC) from a 3849+10 kbC-T homozygous patient; assay: Ussing chamber analysis of CFTR function in 3849+10 kbC-T HBEC; format: cell-based; settings: SSO A 1 uM overnight, OEC 4 uM 2 hs luminal or serosal, 72 h, approved drugs in parallel
Source text: FIG. 11. CFTR activity restored to CF splicing mutation 3849+10 kbC-T using SSOs. SSOs were delivered in vitro by electroporation (˜100% efficiency), CF primary cells were differentiated on permeable supports and tested. Panel A. PCR analysis. The lower band is the correctly spliced CFTR. Panel B. Functional correction by Ussing chamber analysis.
FIG. 12. OEC Mediated Delivery of a SSO in 3849+10 kbC-T HBEC. Well-differentiated human bronchial epithelial cells (HBEC) derived from a 3849+10 kbC-T homozygous patient were incubated with corrective (LNA) SSO A from FIG. 1 (1 uM, overnight). Cells were then incubated with OEC UNC2383 in the luminal or serosal bath (4 uM, 2 hs). Both the SSO and OEC were added in cell growing medium. Seventy two hour later, HBEC were analyzed in Ussing chamber for CFTR function. Orkambi® was tested in parallel inserts.
Results: In vitro studies were performed in well-differentiated HBEC cells derived from a homozygous 3849+10 kbC→T CF patient (CF HBEC) treated with one dose of a specific SSO (1 uM, 12 hs) followed by one dose of OEC (apical or basolateral delivery, 2-4 uM, 2-3 hs). A significant increase of forskolin-stimulated CFTR activity in Ussing chamber analyses was observed 24-96 hs after SSO+OEC treatment compared to SSO alone treatment or vehicle. OEC was efficacious delivered apically as well as basolaterally. Transepithelial resistance and microscopy tests were implemented to monitor cytotoxicity, which was negligible for both SSO and OEC (FIG. 12). In vivo studies were performed in a transgenic mouse model that has a SSO-inducible EGFP reporter.
SSOs (100 nM) were introduced in airway epithelial cells derived from a 3849+10 kbC-T homozygous CF patient in suspension by electroporation using the Neon system, program A4. Cells were differentiated for 2 weeks in culture on human collagen-coated permeable supports (Millipore) before being tested in Ussing chambers following methods described in Kreda et al. […] “Characterization of Wild-Type and ΔF508 Cystic Fibrosis Transmembrane Regulator in Human Respiratory Epithelia” Mol. Biol. Cell 16(5):2154-2167 (100 uM Amiloride, Amil; 10 uM Forskolin, Fsk; 20 uM CFTR inhibitor 172). After Ussing chamber analysis, cells were lysed and assayed for RT-PCR as described in Wang et al 2017 (FIG. 11).
(SEQ ID NO:2), C (5′+G*mA*mG*mU*+C*mU*mU**mU*mA*+C*mU*mC*mA*mC*mC*+A*mU*mU*mU) (SEQ ID NO:3) (Locked Nucleic Acid (LNA)=+, PS=*, 2′OMe=m). In SSO sequences A, B, and C the underlined bases indicate oligo bases that match up to the bases in the mutated splice site in the 3849+10 kb C-T CFTR splicing mutation. MM623 or SSO623 sequences are described herein. […]

[2] = Alamar Blue cytotoxicity assay; format: cell-based; settings: human, HeLa Luc705 cells; Alamar Blue cytotoxicity; read-out: TC50
Experimental: (§3) FIG. 1B-1E. Effects with SSOs. FIG. 1B Structure of UNC2383. FIG. 1C Compound 2383 enhances SSO effects. Cells were incubated in 24-well plates with 100 nM SSO623 or its mismatched control (MM) for 16 h in DMEM+10% FBS, rinsed and then treated with various concentrations of 2383 for 2 h. The cells were then rinsed and incubation continued for an additional 4 h in DMEM+10% FBS. Cells were rinsed twice in PBS and luciferase activity (RLU) and cell protein determined. The larger round symbol indicates the MM oligonucleotide. Means+/−SE. N=3. FIG. 1D Kinetics of 2383 action. Cells were preloaded with 100 nM SSO623 and then exposed to 2383 for various periods after which the compound was removed. The cells were further incubated and then luciferase and protein determined. The total time of incubation in each case was 6 h. FIG. 1E Cytotoxicity of 2383. HeLa Luc705 or NIH-3T3-MDR cells were exposed to 2383 as in (FIG. 1C) then incubated for 24 h in DMEM plus 10% FBS and tested using the Alamar Blue cytotoxicity assay. Means+/−SE. N=3.
as §1
(§4) SSO-mediated luciferase induction assays were conducted as previously described. (18) In short, HeLaLuc705 cells in 24 well culture plates were preincubated with SSO623 followed by brief treatment with the small molecule; at intervals thereafter, luciferase activity and protein content were determined. ASO mediated inhibition of MDR1 gene expression utilized an Alexa 488 labeled anti-P-glycoprotein antibody and flow cytometry to measure Pgp expression as described. (20) The anti-MDR1 sequence is 5′-CCATCccgacctcgcGCTCC-3′(SEQ ID NO: 5) (all phosphorothiopate with 2-O-Me residues in capitals). Cytotoxicity of 2383 was monitored using the Alamar Blue assay. (30)

HeLa Luc705 cells = assay: Alamar Blue cytotoxicity assay; format: cell-based; settings: ratio of cytotoxicity TC50 to luciferase induction EC50
Experimental: as §3, §1, §4

[3] = tested on: lysosomes of HeLa Luc 705 cells; assay: Lysotracker Red accumulation assay; format: cell-based; settings: 10 μM
Experimental: FIG. 9A-9D. Effects on lysosomes. FIG. 9A: Lysotracker uptake. Accumulation of Lysotracker Red in HeLa Luc 705 cells was measured after a 2 h exposure of cells to the indicated concentrations of various analogs. The lysosomotropic compound chloroquine was included as a positive control. Means of triplicate determinations are shown. The color-coded numbers refer to the fold increase in luciferase induction attained by the concentration of analog associated with the adjacent symbol on the graph. The numbers are taken from the data of FIG. 1C for UNC2383 and FIG. 4 for UNC4267, UNC4258, and UNC4428. FIG. 9B: LT50 vs TC50. […] Nonlinear regression was calculated using Prism software. The R^2 value for the plot is 0.91. FIG. 9C: 2383 vs chloroquine; luciferase induction. HeLa Luc705 cells were exposed to SSO623 and then treated with various concentrations of UNC2383 or chloroquine for 2 h and then tested for luciferase induction following the methods described in FIG. 1B-FIG. 1E. […]
The integrity of lysosomes was evaluated using the fluorescent probe Lysotracker Red (Thermo Fisher). […] Cells were thoroughly rinsed in PBS, lysed in 0.2% TX 100, and centrifuged briefly at 4000 rpm, and 100 uL of the supernate was distributed to black 96 well plates for analysis of fluorescence using a FLUOstar Omega 96 well microplate reader.

[4] = tested on: P-glycoprotein (Pgp) expression in NIH-3T3-MDR cells; assay: ASO mediated inhibition of MDR1 gene expression (Pgp by flow cytometry); format: cell-based, mouse; settings: 100 nM anti-MDR1 ASO 16 h; 10 μM UNC2383 2 h where used; 48 h
Experimental: FIG. 4. Effects with ASOs. Reduction of Pgp expression. NIH 3T3-MDR cells were incubated with 100 nM anti-MDR1 ASO or a mismatched (MM) control for 16 h in DMEM+1% FBS. Cells were rinsed and then treated with 10 μM UNC2383 for 2 h. The compound was removed, and the cells further incubated for 48 h. Expression of Pgp on the cell surface was determined by treating cells with Alexa 488 labeled anti-Pgp monoclonal antibody and binding quantitated by flow cytometry (PE(A)=units of fluorescence intensity). Treatment with ASO complexed with Lipofectamine 2000 (L2K) was a positive control. Y axis, cell counts; X axis, Alexa 488 fluorescence. […] Means±SE, N=3.
We also tested UNC2383 for its ability to affect ASOs rather than SSOs. The ASO was designed to inhibit expression of the MDR1 gene and its product the P-glycoprotein multidrug transporter. […] Cell surface expression of P-glycoprotein was monitored using an Alexa 488 labeled anti-Pgp monoclonal antibody and flow cytometry. […]
as §2, with “Cytotoxicity of 2383 was monitored using the Alamar Blue assay. […]” for “(30)”

[5] = mouse, in vivo
Experimental: All animal procedures were conducted in compliance with guidelines of the UNC Laboratory Animal Medicine Department and with federal guidelines. […] (20, 32) EGFP654 mice were administered 35 mg/kg of SSO623 or mismatched oligonucleotide in buffer by intraperitoneal injection on two consecutive days. One day later, mice received either 5 mg/kg of UNC2383 in a 1:1 DMSO/PEG400 solution or only the diluent, via intraperitoneal injection. […] After 24 h, the second cohort was euthanized and tissue and cardiac blood samples were obtained. […] (31) Blood samples were analyzed by the UNC Animal Clinical Chemistry Core facility.

Row | EC50 (HeLaLuc705 cells) [µM] | Compound | CC50 at 2 h [2] [µM] | TC50/EC50 (HeLa Luc705 cells) | further results
1 | – | CCN(CC)CCCC(C)Nc1ccnc2cc(Cl)ccc12 (centres unmarked) [Chloroquine, chloroquine, reference compound] | – | – | SSO-mediated luciferase induction, comparison with chloroquine (HeLaLuc705 cells; FIG. 9C, 2 h, chloroquine also 16 h): little effect
2 | – | CC(C)(C)c1cc(C(C)(C)C)c(NC(=O)c2c[nH]c3ccccc3c2=O)cc1O [Ivactafor®/Kalydeco®, reference compound] | – | – | CFTR channel activity / functional correction [1]: minimal effect; CFTR channel activity / functional correction ([1]; listed as Kalydeco®): no effect
3 | 2 | O=C(Nc1nc2ccccc2n1CCN1CCCC1)c1cc2cc(Br)ccc2o1 [UNC4251] | 7 | 3.5 | –
4 | 11 | COc1ccc2oc(C(=O)Nc3nc4ccccc4n3CCN3CCCC3)cc2c1 [UNC4253] | 48 | 4.4 | –
5 | 6 | O=C(Nc1nc2cc(Cl)ccc2n1CCN1CCCC1)c1cc2cc(Cl)ccc2o1 [UNC4425] | 12.5 | 2.1 | –
6 | 3.5 | Cc1ccc2c(c1)nc(NC(=O)c1cc3cc(Cl)ccc3o1)n2CCN1CCCC1 [UNC4426] | 13 | 3.7 | –
7 | 10 | O=C(Nc1nc2cc(Cl)c(Cl)cc2n1CCN1CCCC1)c1cc2cc(Cl)ccc2o1 [UNC4428] | 50 | 5 | enhancement of SSO actions (HeLaLuc705 cells; 10 μM): quite strongly enhanced; effect on lysotracker accumulation [3]: little effect
8 | – | ASO: anti-MDR1 antisense oligonucleotide 5′-CCATCccgacctcgcGCTCC-3′ (SEQ ID NO: 5) (antisense CCATCCCGACCTCGCGCTCC; sugars from the 5' end m5 d10 m5, all phosphorothioate, methylation of C and T or U not given here) [reference compound] | – | – | Pgp expression on the cell surface [4]: virtually no effect
9 | – | SSO623: 2′-O Me phosphorothioate splice switching oligonucleotide 5′-GTTATTCTTTAGAATGGTGC-3′ (SEQ ID NO: 4) (all 2'-O-methyl, all phosphorothioate, T or U not given here) | – | – | ALT [5]: 51 +/− 8 U/L; AST [5]: 65 +/− 23 U/L; BUN [5]: 23 ± 2 mg/dL; Hb [5]: 13.8 ± 0.8 g/dL; Platelets [5]: 824 +/− 266 × 10^3/ul
